The test system of one assay is myeloid system. Nature of the assay: Effect on the myeloid system of naïve mice (differential blood count). The assay is classed as in vivo. The settings on record: naïve ICR mice, orally 100 μg/kg thrice daily for two days; blood 24 and 48 hours after last administration; vs control. How it is done: A stock solution of imidazoquinoline derivative 45 was prepared by dissolving the same in DMSO. Further dilutions for treatment were performed in PBS. As a control, an equivalent amount of DMSO in PBS was used.
To test the effect of imidazoquinoline derivative 45 on the myeloid system, the compound was orally administered at a dose of 100 μg/kg, thrice daily to ICR mice, for two consecutive days. Blood samples were withdrawn 24 and 48 hours after the last drug administration. A differential blood count was performed.

In assay [1] the target is T1, human A3ARs (Homo sapiens (Human), UniProt P0DMS8). Nature of the assay: Cyclic AMP accumulation assay, efficacy at hA3AR. The assay is classed as cell-based. As to conditions: compared to maximal effect by 2-Cl-IB-MECA alone (control = 100%). On the procedure:
Intracellular cyclic AMP levels were measured with a competitive protein binding method (Nordstedt and Fredholm, 1990). CHO cells that expressed recombinant human A3ARs were harvested by trypsinization. After centrifugation and resuspension in medium, cells were plated in 24-well plates in 0.5 ml medium. After 24 hr, the medium was removed and cells were washed three times with 1 ml DMEM, containing 50 mM HEPES, pH 7.4. Cells were then treated with agonists and/or test compounds in the presence of rolipram (10 μM) and adenosine deaminase (3 units/ml). After 45 min forskolin (10 μM) was added to the medium, and incubation was continued an additional 15 min. The reaction was terminated by removing the supernatant, and cells were lysed upon the addition of 200 μL of 0.1 M ice-cold HCl. The cell lysate was resuspended and stored at −20° C. For determination of cyclic AMP production, protein kinase A (PKA) was incubated with [^3H]cyclic AMP (2 nM) in K2HPO4/EDTA buffer (K2HPO4, 150 mM; EDTA, 10 mM), 20 μL of the cell lysate, and 30 μL 0.1 M HCl or 50 μL of cyclic AMP solution (0-16 pmol/200 μL for standard curve). Bound radioactivity was separated by rapid filtration through Whatman GF/C filters and washed once with cold buffer. Bound radioactivity was measured by liquid scintillation spectrometry.

Assay [2] deals with T1, human A3ARs. The experiment in a line: Dissociation kinetics of [125I]I-AB-MECA from human A3ARs. The assay is classed as binding. On the procedure:
The dissociation of [^125I]I-AB-MECA was measured as follows. Membranes (20 μg) were preincubated at 25° C. with 0.5 nM [^125I]I-AB-MECA, in a total volume of 100 μl of Tris-HCl buffer (50 mM, pH 8.0) containing 10 mM MgCl2, and 1 mM EDTA for 60 min. The dissociation was then initiated by the addition of 3 μM Cl-IB-MECA with or without allosteric modulators. The time course of dissociation of total binding was measured by rapid filtration at appropriate time intervals. Nonspecific binding was measured after 60-min incubation in the presence of 3 μM Cl-IB-MECA. Further assay was as described above.

The subject of assay [3] is adjuvant induced arthritis. The experiment in a line: Adjuvant induced arthritis (AIA) model. The class given is in vivo. As to conditions: AIA rats, orally twice daily 100 μg/kg from onset of disease; vs control. How it is done:
Adjuvant induced arthritis model (model for rheumatoid arthritis (RA)) was established in rats by immunizing the animals with an emulsion contacting Mycobacterium tuberculosis in Freund's adjuvant (Animal Models for Autoimmune and Inflammatory disease:Adjuvant Arthritis in the Rat. Current Protocols in Immunology, Supplement 19, page 15.4.2.). Treatment with imidazoquinoline derivative 45 was initiated upon onset of disease. The imidazoquinoline derivative 45 was administered orally twice daily at a dose of 100 μg/kg.
Evaluation of disease development was carried out daily, starting upon onset of disease until the end of the study. Intensity of arthritis was scored by grading each paw from 0-4 on erythema, swelling and deformity of the joint, every day: 0=no erythema or swelling; 1=slight erythema or swelling of one of the toes or fingers; 2=erythema and swelling of more than one toe or finger; 3=erythema and swelling of the ankle or wrist; 4=complete erythema and swelling of toes or fingers and ankles or wrist, and inability to bend the ankle or wrist. All scores of the four legs from each rat are added to give up to a maximum arthritic score of 16.

The target in a further assay is human A2A AR (Homo sapiens (Human), UniProt P29274). The experiment in a line: Binding assay to the human A2A AR ([3H]CGS21680). As to conditions: 10 μM. On the procedure:
CHO (Chinese hamster ovary) cells expressing the recombinant human ARs (HEK-293 cells were used for the human A2AAR) were cultured in DMEM and F12 (1:1) supplemented with 10% fetal bovine serum, 100 units/ml penicillin, […] streptomycin and 2 μmol/ml glutamine. Cells were harvested by trypsinization. After homogenization and suspension, cells were centrifuged at 500 g for 10 min, and the pellet was re-suspended in 50 mM Tris.HCl buffer (pH 7.4) containing 10 mM MgCl2. The suspension was homogenized with an electric homogenizer for 10 sec, and was then re-centrifuged at 20,000 g for 20 min at 4° C. The resultant pellets were resuspended in buffer in the presence of 3 Units/mL adenosine deaminase, and the suspension was stored at −80° C. until the binding experiments. The protein concentration was measured using the Bradford assay.
For binding to the human A1AR, [^3H]R-PIA (2 nM) was incubated with membranes (40 μg/tube) from CHO cells stably expressing the human A1AR at 25° C. for 60 min in 50 mM Tris.HCl buffer (pH 7.4; MgCl2, 10 mM) in a total assay volume of 200 μL. Nonspecific binding was determined using 10 μM of N^6-cyclopentyladenosine. For human A2A AR binding, membranes (20 μg/tube) from HEK-293 cells stably expressing the human A2A AR were incubated with 15 nM [^3H]CGS21680 at 25° C. for 60 min in 200 μL of 50 mM Tris.HCl, pH 7.4, containing 10 mM MgCl2. N-5′-ethyluronamidoadenosine (10 μM) was used to define nonspecific binding. Reaction was terminated by filtration with GF/B filters.

A value given as a limit tells only on which side of the number the result lay.

Experimental findings from patent US9326978B2, “A3 adenosine receptor allosteric modulators” (The United States of America, Represented by the Secretary, …, priority 2006, dated 2016) are described below.

human A2A AR, sequence (P29274 whole entry): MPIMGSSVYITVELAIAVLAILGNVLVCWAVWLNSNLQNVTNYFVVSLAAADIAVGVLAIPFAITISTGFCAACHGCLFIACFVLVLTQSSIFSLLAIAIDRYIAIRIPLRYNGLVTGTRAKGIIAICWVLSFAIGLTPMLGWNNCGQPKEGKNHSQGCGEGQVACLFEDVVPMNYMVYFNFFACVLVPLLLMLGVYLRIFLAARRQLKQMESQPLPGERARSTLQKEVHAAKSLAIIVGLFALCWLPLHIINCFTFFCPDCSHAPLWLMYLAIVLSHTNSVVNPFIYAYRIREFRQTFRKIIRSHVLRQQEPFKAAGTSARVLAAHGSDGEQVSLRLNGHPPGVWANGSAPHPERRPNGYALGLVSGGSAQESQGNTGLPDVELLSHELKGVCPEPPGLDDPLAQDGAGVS
T1 sequence (P0DMS8 whole entry): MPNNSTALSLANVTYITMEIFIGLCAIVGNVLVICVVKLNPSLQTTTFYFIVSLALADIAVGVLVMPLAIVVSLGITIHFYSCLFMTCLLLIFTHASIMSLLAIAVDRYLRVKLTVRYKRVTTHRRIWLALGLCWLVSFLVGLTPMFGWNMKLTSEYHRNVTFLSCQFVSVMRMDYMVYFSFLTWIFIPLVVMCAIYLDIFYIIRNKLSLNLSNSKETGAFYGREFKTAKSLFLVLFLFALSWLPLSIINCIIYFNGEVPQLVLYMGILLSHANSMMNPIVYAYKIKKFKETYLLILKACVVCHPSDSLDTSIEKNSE

For `Clc1ccc(Nc2nc3ccccc3c3[nH]c(C4CCCCC4)nc23)cc1Cl` [Compound 45, N-(3,4-Dichloro-phenyl)-2-cyclohexyl-1H-imidazo[4,5-c]quinolin-4-amine], the number of neutrophils entry with myeloid system is listed as “increased”. The “number of white blood cells (WBC)” value in the assay with myeloid system is recorded as “increased”. The “% Increase of efficacy at hA3AR at 10 μM” value on human A3ARs [1] is given as 145 ± 7%. In addition, at human A3ARs [2] (0.5 h, % decrease of dissociation at 30 min, residual binding of [125I]AB-MECA after 30 min = 100%, Table 2, read-out: hA3AR Ag. Dissociation at 10 μM), the activity at 10 µM was 173 ± 5%. Besides, the “hA3R Ag. Dissociation (%) at 10 μM” value on human A3ARs [2] (% decrease of [125I]I-AB-MECA dissociation at 30 min (control = 100%), Table 3) is recorded as 173 ± 5%. Besides, in assay [3], the “clinical score (arthritic score, max 16)” value was “reduction in clinical score”. Moreover, the “hA2AAR % displ. at 10 μM” value on human A2A AR ([3H]CGS 21680 (15 nM), HEK293 cells, Table 2) is on record as −1%; at human A2A AR ([3H]CGS 21680, Table 3), <10%; on human A2A AR ([3H]CGS 21680, Table 4), <10%.
